Reference: ChEMBL document CHEMBL1131277, “Functionalized 1,3-teraryls as a new class of hepatoprotectants. Part V” (1998)

Tests used:
Format in all cases: functional
Rattus norvegicus [1] = species: Rattus norvegicus; experiment: Percent protection afforded by the compound in serum alkaline phosphatase (APL) level was determined; design: concentration or dose not given beside the values
Rattus norvegicus [2] = experiment: Hepatoprotective activity against thioacetamide-induced toxicity in various levels of serum ALP in rats was evaluated at 10 mg/kg dose (p.o. x 7 days)
Rattus norvegicus [3] = experiment: Hepatoprotective activity against thioacetamide-induced toxicity in various levels of serum GOT in rats was evaluated at 10 mg/kg dose (p.o. x 7 days)
Rattus norvegicus [4] = species: Rattus norvegicus; experiment: Percent protection afforded by the compound in serum glutamate pyruvate transaminase (GPT) level was determined; design: concentration or dose not given beside the values
Rattus norvegicus [5] = species: Rattus norvegicus; experiment: Percent protection afforded by the compound in serum glutamate oxaloacetate transaminase (GOT) level was determined; design: concentration or dose not given beside the values
Rattus norvegicus [6] = experiment: Hepatoprotective activity against thioacetamide-induced toxicity in various levels of serum GPT in rats was evaluated at 10 mg/kg dose (p.o. x 7 days)

Row | Compound | Protection (Rattus norvegicus [1]) | Enzyme level (Rattus norvegicus [2]; route oral) | Enzyme level (Rattus norvegicus [3]; route oral) | Protection (Rattus norvegicus [4]) | Protection (Rattus norvegicus [5]) | Enzyme level (Rattus norvegicus [6]; route oral) | Enzyme level (Rattus norvegicus [2]) | Enzyme level (Rattus norvegicus [3]) | Enzyme level (Rattus norvegicus [6])
1 | COC(=O)c1c(SC)cc(-c2ccc(Cl)cc2)cc1-c1ccc([N+](=O)[O-])cc1 | 24% | 289.9 U l-1 | 229.4 U l-1 | 44% | 5% | 270.4 U l-1 |  |  | 
2 | COC(=O)c1c(SC)cc(-c2ccc(Cl)cc2)cc1-c1ccc(Cl)cc1 | 33% | 268.2 U l-1 | 186.3 U l-1 | 51% | 37% | 248.5 U l-1 |  |  | 
3 | COC(=O)c1c(SC)cc(-c2ccc(Cl)cc2)cc1-c1cccc([N+](=O)[O-])c1 | 60% | 203.6 U l-1 | 149.9 U l-1 | 70% | 64% | 190.1 U l-1 |  |  | 
4 | COC(=O)c1c(SC)cc(-c2ccc(F)cc2)cc1-c1ccc(Cl)c(Cl)c1 | 46% | 235.5 U l-1 | 159.3 U l-1 | 71% | 57% | 186.3 U l-1 |  |  | 
5 | COC(=O)c1c(SC)cc(-c2ccc(F)cc2)cc1-c1cccc([N+](=O)[O-])c1 | 17% | 307.2 U l-1 | 208.9 U l-1 | 15% | 20% | 360.1 U l-1 |  |  | 
6 | COC(=O)c1c(SC)cc(-c2ccc(F)c(Cl)c2)cc1-c1cccc([N+](=O)[O-])c1 | 18% | 304.1 U l-1 | 211.6 U l-1 | 12% | 18% | 370.2 U l-1 |  |  | 
7 | COC(=O)c1c(SC)cc(-c2ccc(Cl)cc2)cc1-c1ccc(Cl)c(Cl)c1 | 42% | 245.1 U l-1 | 147.3 U l-1 | 49% | 66% | 258.1 U l-1 |  |  | 
8 | COC(=O)c1c(SC)cc(-c2ccc(F)cc2)cc1-c1ccc(F)cc1 | 3% | 341.2 U l-1 | 229.1 U l-1 | 12% | 5% | 370.2 U l-1 |  |  | 
9 | COC(=O)c1c(SC)cc(-c2ccc(Cl)cc2)cc1-c1ccc(Br)cc1 | 8% | 330.2 U l-1 | 208.3 U l-1 | 15% | 20% | 361.5 U l-1 |  |  | 
10 | COC(=O)c1c(SC)cc(-c2ccc(Br)cc2)cc1-c1ccc(Br)cc1 | 10% | 324.2 U l-1 | 202.1 U l-1 | 36% | 25% | 295.4 U l-1 |  |  | 
11 | COC(=O)c1c(SC)cc(-c2ccc(Cl)cc2)cc1-c1ccc(F)cc1 | 6% | 334.2 U l-1 | 222.3 U l-1 | 5% | 10% | 392.3 U l-1 |  |  | 
12 | SILYMARIN | 52% |  |  | 61% | 64% |  | 220 U l-1 | 150 U l-1 | 218 U l-1
